# Measurements from a melting point compilation (Tetko et al.; mined from patent text by program, amines drawn as free bases though some values may be those of a salt).
row,Compound,melting point [°C]
1,Cn1cc([N+](=O)[O-])cc1CO,89 to 90
2,CCOC(=O)c1ccc(C(C(N)=O)C(C)c2cc(N)ccc2N2CCCCC2)cc1 (stereo unspecified),148 to 150
3,OCCc1c2ccccc2c(Br)c2ccccc12,180 to 182
4,COc1ccc(N2c3ccccc3CCC2c2ccccc2)cc1 (stereo unspecified),88 to 90
5,O=C(O)CCCC(=O)c1cn(-c2cccnc2)c2ccccc12,177 to 178
6,CC(=O)OCC(C(OC(C)=O)c1ccc([N+](=O)[O-])cc1)[N+](=O)[O-] (stereo unspecified),63 to 66
7,COc1cc2cc(CO)c(CO)c(-c3ccnc(-n4c(=O)cc(C(=O)N(CCO)CCO)c5ccccc54)c3)c2cc1OC,65 to 68
8,Nc1nc(N)nc(-c2ccc(NS(=O)(=O)c3ccccc3)cc2)n1,197 to 199
9,COc1ccc(C(c2ccc(OC)cc2)c2cnccc2C(=O)O)cc1,122 to 124
10,CCCNc1cc(=O)[nH]c(-c2ccccc2OCCC)n1,172 to 173
11,CCOC(=O)c1cnc(SC)nc1NCc1ccc(OC)c([N+](=O)[O-])c1,99 to 100
12,CC(C)(N)Cc1c[nH]c2ccc(Br)cc12,150 to 155
13,COCCN1CCN(C(C)c2ccc(-c3ccc(F)cc3)cc2)CC1 (stereo unspecified),61 to 62
14,Cc1c(NC(=O)c2ccc(-c3ccc(F)cc3)cc2)ccc2cc(CN3CCCCCC3)cnc12,166 to 168
15,CCC1NC(=O)N(c2ccccc2)C(=O)N1OC(C)=O (stereo unspecified),128 to 130
16,COC(=O)CC1=C(C)C(=Cc2ccc(S(=O)(=O)NC(C)=O)cc2)c2ccc(OC)cc21,172 to 174
17,COCC1COc2cc3ncnc(Nc4cccc(C(F)(F)F)c4)c3cc2O1 (stereo unspecified),280 to 282
18,CC(C)C1CC(O)OC(C(C)C2CC(=O)C3C4C(O)C(O)C5C(O)C(O)CCC5(C)C4CCC23C)C1 (stereo unspecified),239 to 241
19,CC(=O)OC12CC3CC(CC(C3)C1)C2,144 to 145
20,CN(C)C1(c2ccccc2)CCC(CNC(=O)N2CCC(c3c[nH]c4ccc(Cl)cc34)CC2)CC1 (stereo unspecified),140 to 143
21,N#CCCCCn1c(=O)sc2c(=O)[nH]c(N)nc21,240 to 243
22,CCCCOC(=O)c1ccc(C(=O)NNC(=O)c2ccc(C(=O)OCCCC)cc2)cc1,166 to 168
23,COc1cc(OC)c(SC(C)(C)CC(=O)O)c(OC)c1,103 to 105
24,O=C(C=CC=Cc1ccccc1)c1cccc([N+](=O)[O-])c1,58 to 60
25,CCCCCCCCc1ccc(CCC(COC(C)=O)(COC(C)=O)NC(C)=O)cc1,112
26,CC(OCc1cc2cc(C(F)(F)F)ccc2n1S(=O)(=O)c1ccc2c(c1)OCCO2)C(=O)O (stereo unspecified),70

row,Compound,melting point [°C]
1,COC(=O)c1cccc(-c2nnc(-c3ccc(-c4cccc(C)c4)cc3)o2)c1,147 to 148
2,CCc1nn2c(O)cc(O)nc2c1S(=O)(=O)c1ccccc1,> 230
3,COc1ccc(-c2c3c(cc4ccc(O)cc24)-c2ccc(O)cc2CO3)cc1,200 to 203
4,CCOC(=O)c1ccc(NCCCc2ccccc2OC)cc1,106 to 109
5,COC(=O)c1ccc(-c2ccc(OC)c(OC)c2)cc1OC,96 to 97.5
6,CCOP(=O)(CCC(OC)(C(=O)c1ccccc1)c1ccccc1)OCC (stereo unspecified),60 to 62
7,CC(C)c1cc(O)cc2cc(-c3ccc(O)cc3)oc12,192 to 194
8,Cn1ncc(/C=C/C(=O)Nc2ccc(C(=O)O)cc2)c1-c1ccc(F)cc1,291 to 292
9,CC(=O)OC1C(CO)OC(n2c(=O)sc3cnc(N)nc32)C1OC(C)=O (stereo unspecified),109 to 111
10,CCOC(=O)COc1ccc(C2=NNC(=O)NC2)cc1,181 to 183
11,NC(=O)OCc1ccc(CNC(=O)[C@@H](CCCNC(N)=N[N+](=O)[O-])NC(=O)C(c2ccccc2)c2ccccc2)cc1,130 to 132
12,COc1cc2cnnc(N3CCC(=O)CC3)c2cc1OC,180 to 181
13,COc1ccc(CC(=O)NC(NC(Cc2ccccc2C)=NC#N)C(C)(C)C)cc1OC (stereo unspecified),153 to 155
14,CCCCOc1ccc2[nH]c3c([N+](=O)[O-])ccc(Cl)c3c(=O)c2c1,154 to 155
15,O=C(O)[C@H]1NCC[C@@H](O)[C@@H]1O,253 to 260
16,CCOc1ccc(C2=NN(Cc3ccccc3)C(=O)[C@H]3CCCC[C@@H]23)cc1OCC (relative stereo),91 to 92
17,CCCCCCCCCCCCCCCCOCC(CO)OC (stereo unspecified),56
18,COc1ccc(Cc2n[nH]c3c2c(=O)n(-c2ccccc2)c2ncccc32)c(OC)c1,266 to 267
19,O=C1Nc2ccccc2Nc2ccsc21,226
20,O=[N+]([O-])c1oc2ccc(-c3ccc(CCO)cc3)cc2c1-c1ccccc1,86 to 87
21,COc1ccc(Cl)cc1-c1cc(Cl)cc2c1OC(CN)C2 (stereo unspecified),174 to 176
22,COCCn1cc2c(C3C(=O)Nc4ccc(Br)cc43)nc(NCCCN(C)C)nc2n1 (stereo unspecified),297 to 298
23,Cc1cc2oc(=O)c3c(c2cc1C)CCN(CC(C)N(C)C)C3 (stereo unspecified),105 to 107
24,O=C(NOC(=O)C(F)(F)F)C(F)(F)F,40 to 50
25,NS(=O)(=O)c1cc(CCNC(=O)/C=C/c2cccs2)ccc1OCCOC(F)(F)F,203 to 205
26,OCc1cc2c3ccccc3ncn2n1,132 to 133

row,Compound,melting point [°C]
1,NCC1CCN(C(c2ccccc2)c2ccccc2)CC1,80
2,CCCCc1ccc(-c2cc(C(=O)O)cc(-c3ccc(Cl)cc3)n2)cc1,209 to 210
3,Nc1nc2c(c(Nc3ccc(F)cc3)n1)-c1ccccc1C2,205 to 206
4,COc1cc2c(cc1OC)-c1c(C#N)sc(=NC(=O)c3ccccc3)n1CC2,274 to 276
5,N#Cc1c(Cl)n(C2OC(CF)C(O)C2O)c2cc(Cl)c(Cl)cc12 (stereo unspecified),246 to 247
6,Cc1ccc(-c2nc(Cc3cccc(CC(CO)CO)c3)c(C)o2)cc1,114 to 115
7,CN(Cc1ccc(NC(=O)C2=Cc3cc(Br)ccc3N(C=O)CC2)cc1)C1CCOCC1,173 to 175
8,O=C(NCCO)NCCCCC1CCSS1 (stereo unspecified),50 to 65
9,C=CCNc1nc(NCCN)nc2ccc([N+](=O)[O-])cc12,126 to 128
10,COc1ccc(Nc2ccc(Nc3ncnc4cc(-c5ccccc5)sc34)cc2)cc1,210 to 211
11,Cn1c(SCC(=O)C23CC4CC(CC(C4)C2)C3)nnc1C1CC1,96 to 97.5
12,CC1CN(CC(N)=O)C(=O)N1 (stereo unspecified),124
13,N#CC1c2ccccc2Sc2ccccc21,103 to 105
14,COc1nc(C(F)(F)F)cc(=O)n1-c1cc(OCCON=C(C)C)c(Cl)cc1F,136 to 138
15,CN(C(=O)O)c1cccc(-c2ccnc3c(C(=O)c4cccs4)cnn23)c1,215 to 217
16,CCOC(=O)c1ccc(C(F)(F)F)c(OC2CCOC2)n1 (stereo unspecified),45 to 45.5
17,COc1ccc(Oc2cc(N)c(F)cc2C#N)cc1,135
18,CCS(=O)(=O)N[C@H](C(=O)NCCc1ccc(OCc2ccccc2)cc1)C(C)C,133 to 134
19,CC1CC(NC=O)=NN1c1ccc(Cl)cc1 (stereo unspecified),112 to 113
20,CCC[C@@H](C)C(C(=O)O)C(=O)O,95
21,CCCCCCc1ccc(C(=O)Nc2ccc3cc(CN4CCCC4)cnc3c2C)cc1,116
22,NC(=O)NCC(C(=O)O)C(F)(F)F (stereo unspecified),149 to 150
23,COc1nccc2cc(S(N)(=O)=O)oc12,204 to 206
24,CCCc1c(C(=O)C(C)C)c2ccc(C(N)=O)cc2n1Cc1ccc(F)cc1Cl,192 to 193
25,N#Cc1c(Cc2ccccc2)n[nH]c1N,183 to 185
26,Cc1ccc(S(=O)(=O)c2nsc3nc4ccccc4n23)cc1,231 to 234

row,Compound,melting point [°C]
1,CCCCCCOc1ccc(-c2nc(-c3ccc(OCCCCCC)cc3O)nc(-c3c(C)cc(C)cc3C)n2)c(O)c1,140 to 142
2,COc1ccc(NC(=O)/C=C/c2ccc([N+](=O)[O-])c(F)c2)cc1[N+](=O)[O-],263 to 265
3,O=[N+]([O-])c1ccc(Oc2ccc(Cl)cc2Cl)cc1Oc1ccc(Cl)cc1Cl,91 to 93
4,CC1(C)C(=O)Nc2ccc(-c3cc(F)cc(C#N)c3)cc21,231 to 232
5,Cc1ccc(-c2c(Cl)ncn2-c2ccc(S(C)(=O)=O)cc2)cc1Cl,181 to 182
6,O=C(O)COC1=C(Cc2ccc3ccccc3c2)C(=O)CCC1,170 to 171
7,Clc1ccc(N2C3CCC2CN(Cc2ccccc2)C3)cc1,115 to 117
8,C[C@@H](n1cnc2ncccc2c1=O)[C@](O)(Cn1cncn1)c1ccc(F)cc1F,210 to 211
9,Nc1cnc(-c2ccc(OCc3ccccc3)c(C34CC5CC(CC(C5)C3)C4)c2)nc1,216 to 219
10,CC1Cc2c(c3cccnc3n(-c3ccc(Cl)c(Cl)c3)c2=O)O1 (stereo unspecified),273 to 274
11,COc1cc(OCc2ccccn2)ccc1/C=C/c1cc(/C=C/c2cc3ccccc3[nH]2)n[nH]1,151 to 152
12,CCN(CC)CCCN1CCN(CCN2CCCCC2)C1=C(C#N)C#N,58 to 61
13,COc1cc2c(=O)c(-c3ccc(O)cc3)coc2cc1O,336 to 338
14,CC(CSCCSCCSCC(C)C(=O)Nc1ccc(Nc2ccccc2)cc1)C(=O)Nc1ccc(Nc2ccccc2)cc1 (stereo unspecified),131 to 134
15,CC=CC=NNC(=O)c1cccnc1,144 to 145
16,COC(=O)CCC(CS(=O)(=O)c1ccc2ccccc2c1)C(=O)N(CCC1CCCCC1)CCC1CCCCC1 (stereo unspecified),116 to 118
17,Cc1ccc(-n2cccc2)c(N)c1,89 to 90
18,CN(C)Cc1nc(CO)nn1-c1ccc(Cl)cc1C(=O)c1ccccc1,198 to 200
19,COc1ccc(-c2[nH]nc3c2C(=O)c2c(NC(=O)Cc4ccc(NC(=O)CN)cc4)cccc2-3)cc1,228
20,NC(=O)CNC(=O)c1ccnc(-c2cccc3cc(Cc4cccc(C(F)(F)F)c4)sc23)c1F,169 to 170
21,Cc1ccc(Oc2ccc(-c3ccccc3)cc2)cc1,97 to 99
22,CCOC(=O)c1nc2c(=O)[nH]c3cc(C(F)(F)F)ccc3n2c1CNc1ccc2c(c1)OCO2,> 250
23,O=c1c(-c2ccccc2Cl)coc2cc(OCc3nnn[nH]3)cc(Cl)c12,192 to 195
